Columns and labels:
[1] = in vivo
Source text: One or more embodiments of the invention comprise systems and method for delivering relatively high concentrations of medicament without undue precipitation of the medicament in the delivery system. The on-vent adapter with the pattern of aerosol generation is designed to allow up to 90% of aerosol enter the artificial airway and allow 45-80% of dose to reach aerosol to the lungs. Hand Held adapter delivers inhaled mass of 75-90% with 40-55% of dose reaching the lungs as aerosol (based on AMIK phase II Scintigraphy.) Initially in vitro testing was showing precipitation of Vancomycin in powder form on the inspiratory filter.

[2] = tested on: Gram-positive, pneumonia-causing bacteria; test: Reference MIC in tracheal aspirates (TA); assay type: cell-based, Staph species; conditions: locally in TA
Procedure: The dose-response to aerosolized vancomycin, administered in accordance with one or more embodiments of devices, apparatus and/or methods of the present invention was evaluated, as was the ability to deliver a predefined target multiple of an MIC for Gram-positive bacteria causing pneumonia, including, Staph species, in the tracheal aspirates (TA). […] Thus the desired multiple is 128 μg/mL.

gram-positive bacteria = conditions: P<=0.05, cited from earlier work
[3] = tested on: vancomycin susceptable S. aureas; conditions: estimated; cited from earlier work
[4] = aerosolized versus systemic vancomycin, n=10, high suspicion for MRSA respiratory infection; cited from earlier work
S. aureus = conditions: lowered by CLSI; cited from earlier work
[5] = tested on: vancomycin resistant S. aureas; conditions: estimated; printed with "or more"; cited from earlier work
[6] = parenterally administered; cited from earlier work
[7] = tested on: vancomycin intermediate S. aureas; conditions: estimated; cited from earlier work

Row | Compound | dose reaching the lungs as aerosol [1] | inhaled mass [1] | reference MIC value [2] [µg/mL] | CDC-NNIS diagnostic criteria for ventilator-associated pneumonia (VAP) (gram-positive bacteria; aerosolized vancomycin (n=14) and/or gentamicin-sulfate, placebo 75.0% to 78.6%) | WBC at Day 14 (gram-positive bacteria; versus placebo) | bacterial resistance (gram-positive bacteria; versus placebo) | clinical pulmonary infection score CPIS (gram-positive bacteria; versus placebo) | use of systemic antibiotics (gram-positive bacteria; versus placebo) | ventilator weaning (gram-positive bacteria; versus placebo) | reference MIC [3] [µg/mL] | sputum vancomycin concentrations [4] | vancomycin breakpoint (S. aureus) [µg/mL] | reference MIC [5] [µg/mL] | levels in lung epithelial lining fluid as share of those seen in serum [6] [%] | reference MIC [7] [µg/mL]
1 | NCC[C@H](O)C(=O)N[C@@H]1C[C@H](N)[C@@H](O[C@H]2O[C@H](CN)[C@@H](O)[C@H](O)[C@H]2O)[C@H](O)[C@H]1O[C@H]1O[C@H](CO)[C@@H](O)[C@H](N)[C@H]1O [AMIK] | 40-55% | 75-90% |  |  |  |  |  |  |  |  |  |  |  |  | 
2 | CN[C@H](CC(C)C)C(=O)N[C@H]1C(=O)N[C@@H](CC(N)=O)C(=O)N[C@H]2C(=O)N[C@H]3C(=O)N[C@H](C(=O)N[C@H](C(=O)O)c4cc(O)cc(O)c4-c4cc3ccc4O)[C@H](O)c3ccc(c(Cl)c3)Oc3cc2cc(c3O[C@@H]2O[C@H](CO)[C@@H](O)[C@H](O)[C@H]2O[C@H]2C[C@](C)(N)[C@H](O)[C@H](C)O2)Oc2ccc(cc2Cl)[C@H]1O [vancomycin] |  |  | 32 | 35.7% to 73.6% | lower | reduced | reduced | reduced | increased | 2 to 4 | significantly increases | 2 | 16 to 32 | ~14 | 8 to 16
